Each structure is given as a SMILES string.

A word on the EC50: it is the concentration at which the effect is half-maximal. Higher therefore signals lower potency in that assay. For orientation: melting point means the temperature of the solid-liquid transition.

The target in the first series is T1, ligand binding domain of human type PPARα fused with DNA-binding domain of GAL4 (Homo sapiens, UniProt Q07869).
T1 construct: expressed in transfected cells; host or cells: CHO cells
T1 sequence (Q07869 239-466 limits assumed): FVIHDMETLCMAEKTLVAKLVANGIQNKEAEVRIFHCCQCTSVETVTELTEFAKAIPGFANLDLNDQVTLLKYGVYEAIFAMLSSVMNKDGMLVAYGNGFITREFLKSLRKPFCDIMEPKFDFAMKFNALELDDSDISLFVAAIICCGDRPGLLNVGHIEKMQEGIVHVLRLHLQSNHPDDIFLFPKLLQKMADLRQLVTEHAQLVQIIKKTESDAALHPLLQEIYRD
Put plainly: Test of transcriptional activation on peroxisome proliferator-activated receptor α (GAL4 chimera luciferase reporter in CHO cells). Format: cell-based. As to conditions: CHO cells cotransfected with GAL4-human PPARα LBD receptor plasmid and luciferase reporter; luciferase activity after 24 hours. From the text: Test of transcriptional activation on peroxisome proliferator-activated receptors α and γ
To CHO cells cultured in a Ham's F-12 medium with 10% fetal calf serum, receptor plasmid that expresses fused protein of DNA-binding domain of GAL4 being transcription factor of yeast with ligand binding domain of human type PPARs α and γ (Biochemistry, 1993, 32, 5598), firefly luciferase reporter plasmid (Promega Corp.) that is activated by GAL4 and sea shiitake mushroom luciferase plasmid (Promega Corp.) for internal standard were cotransfected with lipofectamine. Thereafter, testing compound dissolved into dimethyl sulfoxide (DMSO) (final concentration of DMSO 0.1%) and control drug were adjusted with Ham's F-12 medium containing 10% defatted fetal calf serum to culture. After 24 hours, the luciferase activity was measured.
Consider `CCCCC/C=C\C/C=C\C=C\[C@@H](O)C/C=C\CCCC(=O)O` [(8S)-HETE, 8-hydroxyeicosatetraenoic acid, reference compound], for which the midpoint of the response, the EC50, lay at 1.3 µM.

`COc1ccc(CC(SC)C(N)=O)cc1C(=O)NCc1ccc(C(F)(F)F)cc1` (stereo not shown) [Example 3, 5-[2-Carbamoyl-2-(methylthio)ethyl]-2-methoxy-N-(4-trifluoromethylbenzyl)benzamide] gave an EC50 of 2.1 µM.

For the molecule `COc1ccc(CC(SC)C(=O)O)cc1C(=O)NCc1ccc(C(F)(F)F)cc1` (stereo not shown) [Example 7, 3-[4-Methoxy-3-[N-(4-trifluoromethylbenzyl)]carbamoylphenyl]-2-(methylthio)propionic acid], the EC50 came to 1.2 µM.

Tested on in the next series: not given
Assay: not given
Conditions: not given
`COc1ccc(C(=O)O)cc1C(=O)NCc1ccc(C(F)(F)F)cc1` [Example 1, 4-Methoxy-3-[N-(4-trifluoromethylbenzyl)carbamoyl]benzoic acid] displayed a melting point of 235.5 to 236.5 °C.

In turn, `COc1ccc(CC(=O)O)cc1C(=O)NCc1ccc(C(F)(F)F)cc1` [Example 2, 4-Methoxy-3-[N-(4-trifluoromethylbenzyl)]carbamoylphenylacetic acid] had a melting point of 167 to 168 °C.

With `COc1ccc(CC(SC)C(N)=O)cc1C(=O)NCc1ccc(C(F)(F)F)cc1` (stereo not shown) [Example 3, 5-[2-Carbamoyl-2-(methylthio)ethyl]-2-methoxy-N-(4-trifluoromethylbenzyl)benzamide], the melting point fell in the range of 152.5 to 153.5 °C.

On to `COc1ccc(CC(C(N)=O)[S+](C)[O-])cc1C(=O)NCc1ccc(C(F)(F)F)cc1` (stereo not shown) [Example 4, 5-[2-Carbamoyl-2-(methylsulfinyl)ethyl]-2-methoxy-N-(4-trifluoromethylbenzyl)benzamide], for which the melting point fell in the range of 170 to 171 °C.

On to `COc1ccc(CC(C(N)=O)S(C)(=O)=O)cc1C(=O)NCc1ccc(C(F)(F)F)cc1` (stereo not shown) [Example 5, 5-[2-Carbamoyl-2-(methylsulfonyl)ethyl]-2-methoxy-N-(4-trifluoromethylbenzyl)benzamide], for which the melting point fell in the range of 219 to 220 °C.

Turning to `COc1ccc(CC(S)C(N)=O)cc1C(=O)NCc1ccc(C(F)(F)F)cc1` (stereo not shown) [Example 6, 5-(2-Carbamoyl-2-mercaptoethyl)-2-methoxy-N-(4-trifluoromethylbenzyl)benzamide], the melting point was 159 to 161 °C.

Turning to `COc1ccc(CC(C(=O)O)S(C)(=O)=O)cc1C(=O)NCc1ccc(C(F)(F)F)cc1` (stereo not shown) [Example 9, 3-[4-Methoxy-3-[N-(4-trifluoromethylbenzyl)]carbamoylphenyl]-2-(methylsulfonyl)propionic acid], the melting point is 158 to 159 °C.
